# Measurements taken from ChEMBL document CHEMBL1201862, “PubChem BioAssay data set” (2004).
# Active and inactive are the calls of the source.
# Key:
# [1] = target: T1, Protein RecA (Mycobacterium tuberculosis, UniProt P9WHJ3); assay: Fluorescence Cell-Free Homogeneous Dose Retest to Identify Inhibitors of RecA-Intein Splicing Activity. [Related pubchem assays (depositor defined):AID2097, AID2223, AID489010, AID492950]; format: functional
# T1 sequence (P9WHJ3 whole entry): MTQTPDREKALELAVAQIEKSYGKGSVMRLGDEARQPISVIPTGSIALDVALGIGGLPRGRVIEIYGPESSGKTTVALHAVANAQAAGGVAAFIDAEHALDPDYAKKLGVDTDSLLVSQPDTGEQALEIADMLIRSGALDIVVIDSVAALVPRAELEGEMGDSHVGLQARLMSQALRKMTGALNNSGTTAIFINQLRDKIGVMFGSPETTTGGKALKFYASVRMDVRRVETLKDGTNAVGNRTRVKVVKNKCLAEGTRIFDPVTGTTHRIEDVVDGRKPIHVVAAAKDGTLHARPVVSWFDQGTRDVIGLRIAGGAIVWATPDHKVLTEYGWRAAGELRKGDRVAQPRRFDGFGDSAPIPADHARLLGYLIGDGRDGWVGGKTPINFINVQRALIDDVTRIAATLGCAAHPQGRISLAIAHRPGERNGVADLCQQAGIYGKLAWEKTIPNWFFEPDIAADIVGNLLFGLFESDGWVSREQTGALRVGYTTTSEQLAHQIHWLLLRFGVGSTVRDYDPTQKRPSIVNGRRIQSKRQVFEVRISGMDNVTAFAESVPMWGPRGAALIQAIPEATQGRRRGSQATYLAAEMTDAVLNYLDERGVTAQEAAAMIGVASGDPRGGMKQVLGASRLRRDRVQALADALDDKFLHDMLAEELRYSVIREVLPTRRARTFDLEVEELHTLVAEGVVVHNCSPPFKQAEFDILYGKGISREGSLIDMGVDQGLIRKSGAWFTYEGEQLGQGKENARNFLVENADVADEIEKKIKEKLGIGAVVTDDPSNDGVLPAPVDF
# [2] = viability of PTEN-deleted HCT116 cells – cell-based, HCT116 PTEN knockout, dose response (AID 1047); format: functional;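 note: HCT116 colon tumor cells with PTEN knocked out; cells exposed to compound for 60 hours before readout; potency for loss of cell viability measured by luminescence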
# [3] = microbe, parasite or virus in culture; format: functional; conditions: Mycobacterium tuberculosis
# [4] = target: T2, Replicative DNA helicase DnaB (Mycobacterium tuberculosis, UniProt P9WMR3); assay: DnaB intein splicing inhibitors, dose response, biochemical, cell-free fluorescence (AID 449749); format: functional
# T2 sequence (P9WMR3 whole entry): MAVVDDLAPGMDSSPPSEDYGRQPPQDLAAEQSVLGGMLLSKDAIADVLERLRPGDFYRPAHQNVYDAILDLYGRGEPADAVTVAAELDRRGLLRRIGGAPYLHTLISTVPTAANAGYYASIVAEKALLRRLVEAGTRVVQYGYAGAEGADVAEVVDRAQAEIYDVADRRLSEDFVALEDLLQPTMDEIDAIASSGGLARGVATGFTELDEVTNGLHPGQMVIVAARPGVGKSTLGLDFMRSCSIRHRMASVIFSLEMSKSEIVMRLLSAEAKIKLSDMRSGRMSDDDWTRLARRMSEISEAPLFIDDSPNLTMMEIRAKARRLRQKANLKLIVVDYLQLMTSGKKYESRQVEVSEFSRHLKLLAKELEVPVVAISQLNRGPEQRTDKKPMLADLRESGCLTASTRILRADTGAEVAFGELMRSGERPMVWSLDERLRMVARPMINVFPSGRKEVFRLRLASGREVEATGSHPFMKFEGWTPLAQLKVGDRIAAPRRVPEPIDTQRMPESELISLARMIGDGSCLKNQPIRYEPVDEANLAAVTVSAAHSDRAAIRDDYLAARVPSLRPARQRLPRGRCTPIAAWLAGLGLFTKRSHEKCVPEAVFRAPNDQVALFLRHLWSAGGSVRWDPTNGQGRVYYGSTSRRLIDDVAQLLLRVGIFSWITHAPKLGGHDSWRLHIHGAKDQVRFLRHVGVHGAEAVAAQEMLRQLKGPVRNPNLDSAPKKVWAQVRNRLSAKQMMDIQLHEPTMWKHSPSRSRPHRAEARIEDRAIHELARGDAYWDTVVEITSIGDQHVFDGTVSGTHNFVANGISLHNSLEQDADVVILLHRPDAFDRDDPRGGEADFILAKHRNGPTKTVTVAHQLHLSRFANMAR
# [5] = viability of HCT116 lacking mutant beta-catenin – cell-based, human colon tumor, dose response (AID 1045); format: functional;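 note: HCT116 colon tumor cells with beta catenin knocked out; cells exposed to compound for 60 hours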
# [6] = target: T3, Hexokinase HKDC1 (Homo sapiens, UniProt Q2TB90); assay: inhibition of HKDC1 glucose phosphorylation – biochemical, W721R variant, dose response (AID 504729); format: functional
# T3 sequence (Q2TB90 whole entry): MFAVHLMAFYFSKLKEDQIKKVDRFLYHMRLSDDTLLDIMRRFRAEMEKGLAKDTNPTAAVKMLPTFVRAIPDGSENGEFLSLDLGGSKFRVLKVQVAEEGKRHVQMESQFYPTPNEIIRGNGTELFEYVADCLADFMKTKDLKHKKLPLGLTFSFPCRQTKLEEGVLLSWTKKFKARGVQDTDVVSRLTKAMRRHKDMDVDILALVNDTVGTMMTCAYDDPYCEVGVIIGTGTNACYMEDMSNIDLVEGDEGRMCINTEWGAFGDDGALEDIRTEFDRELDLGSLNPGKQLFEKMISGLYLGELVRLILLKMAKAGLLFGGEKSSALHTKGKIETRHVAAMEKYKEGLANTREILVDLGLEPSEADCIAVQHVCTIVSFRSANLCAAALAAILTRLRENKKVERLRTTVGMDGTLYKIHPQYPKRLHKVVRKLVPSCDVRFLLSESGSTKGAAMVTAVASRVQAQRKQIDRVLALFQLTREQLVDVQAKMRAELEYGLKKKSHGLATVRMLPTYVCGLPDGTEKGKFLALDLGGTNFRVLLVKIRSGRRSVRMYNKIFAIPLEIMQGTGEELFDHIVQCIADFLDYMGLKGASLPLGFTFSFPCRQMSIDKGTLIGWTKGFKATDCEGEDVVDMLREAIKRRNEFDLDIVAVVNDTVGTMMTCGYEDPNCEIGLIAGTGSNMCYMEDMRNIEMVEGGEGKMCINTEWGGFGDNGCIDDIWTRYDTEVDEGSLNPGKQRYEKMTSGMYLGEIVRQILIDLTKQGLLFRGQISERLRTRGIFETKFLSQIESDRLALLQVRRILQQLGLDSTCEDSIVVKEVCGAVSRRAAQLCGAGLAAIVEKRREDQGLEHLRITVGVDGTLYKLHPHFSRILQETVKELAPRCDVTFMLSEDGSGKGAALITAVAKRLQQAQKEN
# [7] = growth inhibition of PfATP4-mutant resistant parasites – NITD609-resistant line, SYBR Green, dry powder, dose response (AID 1159571); format: functional, cell-based;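 note: parasites synchronized at ring stage by sorbitol before testing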
# [8] = Dd2 malaria parasite growth inhibition potency – SYBR Green, dry powder samples, dose response (AID 1159566); format: functional, cell-based;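 note: potency for growth inhibition with lower SYBR green DNA signal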
# [9] = growth inhibition of yeast DHODH-expressing 3D7 parasites – SYBR Green, dry powder samples, dose response (AID 1159570); format: functional, cell-based;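 note: parasite growth measured after 72 hours of compound exposure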
# [10] = test system: HEK293; assay: cells; format: functional, cell-based; conditions: Homo sapiens
# [11] = test system: HEK293; assay: cells; format: functional, cell-based; conditions: Homo sapiens; remark: listed apart in the source
# [12] = test system: HEK293; assay: NOD2 signaling inhibitors in MDP-stimulated cells, cell-based, uHTS, luminescence (AID 2001); format: functional; conditions: Homo sapiens
# [13] = test system: HEK293; assay: inhibition of NOD1-driven NF-kB reporter – cell-based, luminescence, uHTS, primary screen (AID 1578); format: functional; conditions: Homo sapiens
# [14] = test system: HEK293; assay: cells; format: functional, cell-based; conditions: Homo sapiens; remark: listed apart in the source
# [15] = target: Nucleotide-binding oligomerization domain-containing protein 2 (Homo sapiens, UniProt Q9HC29); assay: inhibition of NOD2-driven NF-kB reporter – cell-based, luminescence, uHTS, HEK293 (AID 1566); format: functional
# [16] = P. falciparum Dd2 growth inhibitors, dose response, SYBR Green, cherry-picked samples (AID 1159567); format: functional, cell-based
# [17] = target: Paired box protein Pax-8 (Homo sapiens, UniProt Q06710); assay: PAX8 transcriptional activity inhibition in RMG-I – RMG-I cells, luciferase, cherry-pick, dose response (AID 687027); format: functional, cell-based;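 note: luciferase reporter driven by Pax8 target thyroperoxidase promoter measured by SteadyGlo luminescence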
# [18] = OVCAR8 cell viability loss – plate reader, dry powder samples, PAX8 project, dose response (AID 743197); format: functional, cell-based; conditions: OVCAR-8
# [19] = OVCAR-3 cell viability loss – plate reader, dry powder samples, PAX8 inhibitor project, dose response (AID 743044); format: functional, cell-based
# [20] = HIV-1 AD8 envelope cell-cell fusion blockers – cherry-pick, dose response (AID 652062); format: functional, cell-based;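 note: luciferase signal from cell-cell fusion driven by HIV-1 clade B AD8 Env; potency is for inhibitors of fusion seen as a drop in luminescence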
# [21] = IGROV1 cell killing – plate reader, dry powder samples, PAX8 inhibitor project, dose response (AID 743043); format: functional, cell-based; conditions: IGROV-1
# [22] = blockers of HIV-1 envelope-mediated cell-cell fusion – cherry-pick, dose response (AID 652057); format: functional, cell-based
# [23] = test system: Vero; assay: viability of Vero cells under compound – cytotoxicity control for flavivirus capping enzyme inhibitors (AID 588742); format: functional; conditions: Chlorocebus sabaeus
# [24] = target: Genome polyprotein (dengue virus type 2, UniProt P29990); assay: flavivirus cap methylation enzyme inhibition – biochemical, confirmation dose response, primary screen (AID 588689); format: functional
# [25] = Luminescence Cell-Based Dose Retest to Confirm Inhibitors of Cancer Stem Cells. [Related pubchem assays (depositor defined):AID2717, AID2721]; format: functional, Homo sapiens; conditions: Homo sapiens
# Sequence of Nucleotide-binding oligomerization domain-containing protein 2 (Q9HC29 whole entry, the tested form may be a part): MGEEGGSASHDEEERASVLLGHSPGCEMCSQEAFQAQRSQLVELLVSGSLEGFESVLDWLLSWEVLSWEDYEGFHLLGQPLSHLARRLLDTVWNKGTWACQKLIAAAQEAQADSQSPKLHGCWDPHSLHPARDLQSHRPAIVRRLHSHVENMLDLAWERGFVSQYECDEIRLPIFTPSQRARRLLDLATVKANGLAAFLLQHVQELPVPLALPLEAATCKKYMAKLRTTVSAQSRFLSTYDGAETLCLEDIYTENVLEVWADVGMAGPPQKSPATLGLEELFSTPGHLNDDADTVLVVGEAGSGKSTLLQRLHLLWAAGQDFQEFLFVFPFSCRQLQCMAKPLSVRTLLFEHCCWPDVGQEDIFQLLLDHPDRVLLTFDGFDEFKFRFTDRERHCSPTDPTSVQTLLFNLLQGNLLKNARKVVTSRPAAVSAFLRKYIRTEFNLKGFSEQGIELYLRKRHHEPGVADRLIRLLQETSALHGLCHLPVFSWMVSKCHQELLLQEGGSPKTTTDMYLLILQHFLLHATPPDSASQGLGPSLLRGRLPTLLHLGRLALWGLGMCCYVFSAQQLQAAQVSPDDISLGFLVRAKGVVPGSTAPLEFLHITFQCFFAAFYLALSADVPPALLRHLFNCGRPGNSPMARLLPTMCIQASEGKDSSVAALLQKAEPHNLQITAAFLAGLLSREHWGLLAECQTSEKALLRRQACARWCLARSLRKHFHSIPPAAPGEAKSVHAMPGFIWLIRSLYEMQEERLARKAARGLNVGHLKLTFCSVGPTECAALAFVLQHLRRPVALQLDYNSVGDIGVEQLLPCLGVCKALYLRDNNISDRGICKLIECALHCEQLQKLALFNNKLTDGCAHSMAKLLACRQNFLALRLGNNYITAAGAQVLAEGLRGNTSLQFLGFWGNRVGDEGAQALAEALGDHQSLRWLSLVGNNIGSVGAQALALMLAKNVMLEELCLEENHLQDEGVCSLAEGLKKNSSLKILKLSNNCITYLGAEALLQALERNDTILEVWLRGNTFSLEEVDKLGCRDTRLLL
# Sequence of Paired box protein Pax-8 (Q06710 whole entry): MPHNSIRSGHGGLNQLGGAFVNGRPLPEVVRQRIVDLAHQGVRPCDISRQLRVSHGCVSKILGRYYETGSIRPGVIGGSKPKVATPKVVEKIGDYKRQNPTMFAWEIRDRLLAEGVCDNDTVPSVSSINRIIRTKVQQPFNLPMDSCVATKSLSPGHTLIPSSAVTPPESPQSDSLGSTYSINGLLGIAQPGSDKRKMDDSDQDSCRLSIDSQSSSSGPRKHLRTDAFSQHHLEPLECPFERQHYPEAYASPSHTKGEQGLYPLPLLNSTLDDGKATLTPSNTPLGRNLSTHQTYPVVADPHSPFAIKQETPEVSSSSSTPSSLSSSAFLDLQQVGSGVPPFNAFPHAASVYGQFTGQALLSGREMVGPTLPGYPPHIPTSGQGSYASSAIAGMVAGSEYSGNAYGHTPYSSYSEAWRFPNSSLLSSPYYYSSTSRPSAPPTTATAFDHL
# Sequence of Genome polyprotein (P29990 2492-3391 limits assumed): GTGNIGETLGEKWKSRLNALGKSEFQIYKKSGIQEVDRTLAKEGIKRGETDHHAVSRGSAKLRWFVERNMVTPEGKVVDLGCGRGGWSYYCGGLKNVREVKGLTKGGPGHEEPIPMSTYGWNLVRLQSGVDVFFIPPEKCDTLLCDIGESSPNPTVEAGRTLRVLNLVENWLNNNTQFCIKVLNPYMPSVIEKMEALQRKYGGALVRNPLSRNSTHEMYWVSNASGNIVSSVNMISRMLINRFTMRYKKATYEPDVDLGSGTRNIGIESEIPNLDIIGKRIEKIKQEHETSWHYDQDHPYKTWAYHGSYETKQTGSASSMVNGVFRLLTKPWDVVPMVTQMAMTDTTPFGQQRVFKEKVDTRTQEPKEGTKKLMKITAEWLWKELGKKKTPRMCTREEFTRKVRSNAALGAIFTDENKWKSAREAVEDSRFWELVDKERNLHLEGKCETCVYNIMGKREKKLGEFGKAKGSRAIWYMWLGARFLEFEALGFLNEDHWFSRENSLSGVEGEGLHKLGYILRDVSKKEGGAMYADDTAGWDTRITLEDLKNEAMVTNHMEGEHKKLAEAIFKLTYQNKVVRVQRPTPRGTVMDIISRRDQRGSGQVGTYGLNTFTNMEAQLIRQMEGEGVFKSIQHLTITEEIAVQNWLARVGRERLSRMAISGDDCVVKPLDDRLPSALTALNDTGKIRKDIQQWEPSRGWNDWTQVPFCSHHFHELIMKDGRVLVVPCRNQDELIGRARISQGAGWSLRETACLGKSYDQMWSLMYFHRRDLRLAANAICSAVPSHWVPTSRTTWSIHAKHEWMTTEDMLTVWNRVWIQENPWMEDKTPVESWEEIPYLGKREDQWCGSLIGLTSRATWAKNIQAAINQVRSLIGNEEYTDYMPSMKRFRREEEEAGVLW
compound,measurement,setting,value
O=C1c2ccccc2-c2onc3ccc(Oc4ccccc4)c1c23,EC50,[1],0.452 µM (active)
same,EC50,[2],6.21 µM (active)
same,CC50,[3],9.25 µM (active)
same,AC50,[4],1.38 µM (active)
same,EC50,[5],6.7 µM (active)
same,IC50,[6],70.7 µM (inactive)
OC[C@H]1[C@H](c2ccccc2)C2(CN(Cc3ccccc3F)C2)N1Cc1ccccc1F,AC50,[7],1.15 µM (active)
same,AC50,[8],0.542 µM (active)
same,AC50,[9],1.1 µM (active)
Cc1nc(SCCC(=O)O)c2cc(-c3ccccc3)sc2n1,IC50,[10],4.5 µM (active)
same,IC50,[11],> 20 µM (inactive)
same,IC50,[12],> 20 µM (inactive)
same,EC50,[13],> 20 µM (inactive)
same,IC50,[14],> 20 µM (inactive)
same,EC50,[15],> 20 µM (inactive)
C[C@H](CO)N1C[C@H](C)[C@@H](CN(C)S(=O)(=O)c2ccc(C(F)(F)F)cc2)OCc2ccccc2-c2c(n(C)c3ccccc23)C1=O,AC50,[16],0.95 µM (active)
same,AC50,[7],0.885 µM (active)
same,AC50,[8],0.599 µM (active)
same,AC50,[9],0.777 µM (active)
Cc1ccc(S(=O)(=O)Nc2c(O)ccc3ccccc23)cc1,EC50,[1],0.939 µM (active)
same,AC50,[4],8.03 µM (active)
same,IC50,[6],16.1 µM (active)
Cc1noc(C)c1S(=O)(=O)Nc1ccc2c(c1)CC(=O)N([C@@H](C)CO)C[C@@H](C)[C@H](CN(C)Cc1ccc(Cl)c(Cl)c1)O2,AC50,[17],1.19 µM (active)
same,AC50,[18],21.1 µM (active)
same,AC50,[19],41.1 µM (active)
same,AC50,[20],1.42 µM (active)
same,AC50,[21],12.6 µM (active)
same,AC50,[22],10.9 µM (active)
NC(=O)c1c(NC(=O)C(=O)N2CCOCC2)sc2c1CCCC2,IC50,[10],> 20 µM (inactive)
same,IC50,[11],> 20 µM (inactive)
same,IC50,[12],> 20 µM (inactive)
same,EC50,[13],> 20 µM (inactive)
same,IC50,[14],> 20 µM (inactive)
same,EC50,[15],> 20 µM (inactive)
Cc1ccc(S(=O)(=O)Nc2ccccc2-c2ccccc2NS(=O)(=O)c2ccc(C)cc2)cc1,IC50,[10],11.8 µM (active)
same,IC50,[11],> 20 µM (inactive)
same,IC50,[12],10 µM (inactive)
same,CC50,[23],> 40 µM (active)
same,EC50,[13],4.99 µM (active)
same,IC50,[14],> 20 µM (inactive)
same,IC50,[24],54.8 µM (active)
same,EC50,[15],11.5 µM (active)
same,AC50,[25],6.86 µM (active)
COc1cc(C2c3c([nH]c(=O)[nH]c3=O)Nc3ccc4ccccc4c32)cc(OC)c1OC (centres undefined),IC50,[6],15.2 µM (active)
